Experimental data: ChEMBL document CHEMBL1777699, “Part 2: Design, synthesis and evaluation of hydroxyproline-derived α2δ ligands” (Bioorg Med Chem Lett, 2011)

What was measured:
[1] = Plasma protein binding in human; format: ADME, cell-free; conditions: read-out: PPB (converted)
[2] = Lipophilicity, log D of the compound; format: physicochemical; conditions: octanol/water
Rattus norvegicus = organism: Rattus norvegicus; experiment: Unbound clearance in rat; format: ADME, organism-based; conditions: in vivo
[3] = Displacement of [3H]gabapentin from voltage gated calcium channel alpha2delta from pig cerebral cortex by scintillation counting; format: tissue-based, Sus scrofa
[4] = Half life in rat; format: ADME, organism-based; conditions: in vivo
Plasma = experiment: Cmax in human; format: ADME, organism-based; conditions: in vivo
Canis familiaris = organism: Canis familiaris; experiment: Unbound clearance in dog; format: ADME, organism-based, Canis lupus familiaris; conditions: in vivo
[5] = Tmax in human; format: ADME; conditions: plasma
[6] = Half life in dog; format: ADME, organism-based, Canis lupus familiaris; conditions: in vivo
[7] = Half life in human; format: ADME, cell-free; conditions: plasma
[8] = Drug level in rat urine after 24 hrs; format: ADME; conditions: read-out: Drug uptake

Row | Compound | IC50 [3] [nM] | also measured
1 | O=C(O)[C@@H]1C[C@H](OCc2ccc(Cl)cc2)CN1 | 48 | fraction unbound [1]: 0.17; logD [2]: -0.2; CL free (Rattus norvegicus): 26 mL/min/kg; half-life [4]: 24 min
2 | C[C@@H](CNCC(=O)O)Oc1ccc(Cl)cc1 | 523 | –
3 | O=C(O)CNCCSc1ccc(Cl)cc1 | 195 | –
4 | O=C(O)CNCCOc1ccc(Cl)cc1 | > 8000 | –
5 | O=C(O)[C@@H]1C[C@H](Sc2ccc(Cl)cc2)CN1 | 72 | –
6 | O=C(O)[C@@H]1C[C@H](Oc2ccc(Cl)cc2)CN1 | 32 | –
7 | O=C(O)[C@H]1C[C@@H](Oc2ccc(Cl)cc2)CN1 | > 10000 | –
8 | Cl.O=C(O)[C@@H]1C[C@H](Oc2cccc(Cl)c2)CN1 | 4 | Cmax (Plasma): 2400 nM; CL free (Canis familiaris): 49 mL/min/kg; Tmax [5]: 30 min; fraction unbound [1]: 0.07; logD [2]: -0.1; CL free (Rattus norvegicus): 41 mL/min/kg; half-life [6]: 90 min; half-life [7]: 138 min; half-life [4]: 24 min
9 | O=C(O)[C@@H]1C[C@H](Oc2ccccc2)CN1 | 102 | –
10 | O=C(O)[C@@H]1C[C@H](Oc2ccc(Cl)cn2)CN1 | 399 | –
11 | O=C(O)[C@@H]1C[C@H](Oc2ccc3c(c2)OCC3)CN1 | 11 | fraction unbound [1]: 0.11; logD [2]: -0.1; CL free (Rattus norvegicus): 111 mL/min/kg; half-life [4]: 60 min
12 | O=C(O)[C@@H]1C[C@H](Oc2ccc3ccccc3c2)CN1 | 30 | –
13 | O=C(O)[C@@H]1C[C@H](Oc2ccc(OC(F)(F)F)cc2)CN1 | 1680 | –
14 | O=C(O)[C@@H]1C[C@H](Oc2cccc(F)c2)CN1 | 17 | –
15 | O=C(O)[C@@H]1C[C@H](Oc2ccccc2Cl)CN1 | 52 | –
16 | CCC(C)O[C@@H]1CN[C@H](C(=O)O)C1 (stereo partly drawn) | 269 | –
17 | N#Cc1ccccc1O[C@@H]1CN[C@H](C(=O)O)C1 | > 10000 | –
18 | O=C(O)[C@@H]1C[C@H](Oc2cccc(O)c2)CN1 | 94 | –
19 | O=C(O)[C@@H]1C[C@H](Oc2ccc(Cl)c(F)c2)CN1 | 26 | fraction unbound [1]: 0.05; logD [2]: 0.1; CL free (Rattus norvegicus): 108 mL/min/kg; half-life [4]: 90 min
20 | O=C(O)[C@@H]1C[C@H](OCc2cccc(Cl)c2)CN1 | 14 | –
21 | O=C(O)[C@@H]1C[C@H](Sc2cccc(Cl)c2)CN1 | 7 | fraction unbound [1]: 0.16; logD [2]: 0.3; CL free (Rattus norvegicus): 56 mL/min/kg; half-life [4]: 18 min
22 | CC(C)(C)OC(=O)[C@@H]1C[C@H](Oc2cccc(Cl)c2)CN1 | 325 | –
23 | CC(C)(C)OC(=O)N1C[C@@H](Oc2cccc(Cl)c2)C[C@H]1C(=O)O | > 1000 | –
24 | CCCN1C[C@@H](Oc2cccc(Cl)c2)C[C@H]1C(=O)O | > 1000 | –
25 | COC(=O)[C@@H]1C[C@H](Oc2cccc(Cl)c2)CN1C(=O)OC(C)(C)C | – | dose excreted at 24 h [8]: 85%
26 | C[C@@]1(C(=O)O)C[C@H](Oc2cccc(Cl)c2)CN1 (stereo in doubt; 36) | 1260 | –
27 | C[C@@]1(C(=O)O)C[C@H](Oc2cccc(Cl)c2)CN1 (stereo in doubt; 37) | > 10000 | –
